Patent publication US20070049627A1, “Treating vulvodynia using prodrugs of GABA analogs” (priority 2005, published 2007)
Read-outs that look alike come from different tables or passages of the source.

Tests used:
[1] = in vivo, po
[2] = Randomized, crossover, fed/fasted single-dose pharmacokinetic study of oral sustained release tablets of compound (3); format: in vivo, human; conditions: for AUC of compound (3) in blood as percent of corresponding AUC of gabapentin in blood / maximum intact compound (3) concentration as percent of corresponding peak gabapentin concentration: sustained release tablets oral
Procedure: A randomized, crossover, fed/fasted single-dose study of the safety, tolerability, and pharmacokinetics of oral administration of 1-{[(α-isobutanoyloxyethoxy)carbonyl]aminomethyl}-1-cyclohexane acetic acid (3) in healthy adult subjects was conducted. The oral sustained release dosage form of Example 6 was used in this study. The study was designed to evaluate the performance of this formulation in humans in comparison with the commercial gabapentin capsule formulation (Neurontin®, Pfizer). Twelve healthy adult volunteers (7 males and 5 females) participated in the study. Mean body weight was 75.6 kg. All subjects received two different treatments in a random order with a one-week washout between treatments. The two treatments were: (A) a single oral dose of Example 1 tablets (2×600 mg) after an overnight fast; and (B) a single oral dose of Example 1 tablets (2×600 mg) after a high fat breakfast.
Blood and plasma samples were collected from all subjects prior to dosing, and at 0.5, 1, 1.5, 2, 3, 4, 6, 8, 12, 18, 24, and 36 hours after dosing. Urine samples were collected from all subjects prior to dosing, and complete urine output was obtained at the 0-4 h, 4-8 h, 8-12 h, 12-18 h, 18-24 h, and 24-36 h intervals after dosing. Blood samples were quenched immediately with methanol and stored frozen at […]. Sample aliquots were prepared for analysis of gabapentin and compound (3) using sensitive and specific LC/MS/MS methods.

[3] = typical value used for comparison; cited from earlier work
[4] = Tmax of immediate release formulations following oral administration; conditions: in vivo
[5] = tested on: patients suffering from chronic vulvar pain; conditions: increasing amounts of gabapentin over 12 weeks, cited from earlier work
[6] = sustained release tablets 2×600 mg oral, fasted subjects
[7] = sustained release tablets 2×600 mg oral, fed subjects

| SMILES | Tmax [1] [h] | Cmax of gabapentin in blood ([2]; healthy adults, single oral dose sustained release tablets 2×600 mg, after a high fat breakfast) [ng/mL] | mean±SD Cmax for gabapentin in blood ([2]; healthy adults, single oral dose sustained release tablets 2×600 mg, fasted) [ng/mL] | AUC of gabapentin in blood ([2]; healthy adults, sustained release tablets 2×600 mg oral, after a high fat breakfast) [ng·h/mL] | mean±SD AUC for gabapentin in blood ([2]; healthy adults, sustained release tablets 2×600 mg oral, fasted) [ng·h/mL] | apparent terminal elimination half-life for gabapentin in blood [2, 6] [h] | gabapentin Tmax (time to peak blood levels) [2, 6] [h] | percent of the gabapentin dose recovered in urine [2, 6] [%] | apparent terminal elimination half-life for gabapentin in blood [2, 7] [h] | percent of the gabapentin dose recovered in urine [2, 7] [%] | increase of exposure to gabapentin in the presence of food compared to fasted subjects ([2]; sustained release tablets 2×600 mg oral, fed vs fasted) [%] | gabapentin Tmax (time to peak blood levels) ([2]; sustained release tablets 2×600 mg oral, in the presence of food) [h] | AUC of compound (3) in blood as percent of corresponding AUC of gabapentin in blood ([2]; fasted subjects) [%] | maximum intact compound (3) concentration as percent of corresponding peak gabapentin concentration ([2]; fasted subjects) | AUC of compound (3) in blood as percent of corresponding AUC of gabapentin in blood ([2]; fed subjects) [%] | maximum intact compound (3) concentration as percent of corresponding peak gabapentin concentration ([2]; fed subjects) | typical Tmax of immediate release gabapentin [3] [h] | Tmax [4] [h] | patients with partial or complete relief of vulvar pain symptoms ([5]; amitriptyline non-responders) | patients reporting side effects such as headaches, nausea, vomiting, fatigue, and dizziness [5] |
| --- | --- | --- | --- | --- | --- | --- | --- | --- | --- | --- | --- | --- | --- | --- | --- | --- | --- | --- | --- | --- |
| CC(OC(=O)NCC1(CC(=O)O)CCCCC1)OC(=O)C(C)C (stereo not drawn) [compound (3), 1-{[(α-Isobutanoyloxyethoxy)carbonyl]aminomethyl}-1-Cyclohexane Acetic Acid] | 2 to 2.6 | 6240 ± 1550 | 4210 ± 1150 | 83000 ± 21800 | 54500 ± 12200 | 6.47 ± 0.77 | 5.08 ± 1.62 | 46.5±15.8 | 5.38 ± 0.80 | 73.7±7.2 | 52 | 8.40 ± 2.07 | 0.3 | approximately 1.0% | < 0.1 | approximately 0.3% |  |  |  |  |
| NCC1(CC(=O)O)CCCCC1 [gabapentin] |  |  |  |  |  |  |  |  |  |  |  |  |  |  |  |  | 2 to 4 | 2.8 to 3.3 | Eighty-two | over half the patients |
